Read-outs that look alike come from different tables or passages of the source.
Tests used:
PPB = type: in vitro ADME; settings: plasma
[1] = Pharmacokinetics of intraperitoneal or intravenous injection in CD1 mice; type: in vivo; settings: for concentration at 0.25 h / concentration at 0.5 h / concentration at 1 h / concentration at 2 h / concentration at 4 h / concentration at 8 h / concentration at 24 h / AUC(0-t) / half-life / concentration at 0.033 h / concentration at 0.083 h: male, CD1, mouse, plasma
Method: The pharmacokinetics of exemplary compounds 103, 107, 100, 101, and 102 was examined for intraperitoneal and intravenous administration. The desired serial concentrations of working solutions were achieved by diluting stock solution (1 mg/mL in DMSO) of analyte with methanol. In particular, 20 μL of working solutions (1, 2, 5, 10, 50, 100, 500, 1000, 2000 ng/mL) were added to 20 μL of the blank CD1 mice plasma to achieve calibration standards of 1-2000 ng/mL (1, 2, 5, 10, 50, 100, 500, 1000, 2000 ng/mL) in a total volume of 40 μL. Dose of IV and IP were diluted by 1000 fold and 10000 with methanol, 20 μL of the diluted dose solutions were added to 20 μL of the blank CD1 mice plasma to achieve dose samples. Next, 40 μL standards and 40 μL dose samples were added to 20 μL of IS (100 ng/mL) and 200 μL of acetonitrile for precipitating protein respectively. Then the samples were vortexed for 30 seconds. After centrifugation at 4 degree Celsius, 4000 rpm for 15 minutes, the supernatant was diluted 3 times with water. 10 μL of the diluted supernatant was injected into the LC/MS/MS system for quantitative analysis.
Exemplary compounds 103, 107, 100, 101, and 102 were administered intravenously (5 second injection of 10% HP-b-CD and 40 mM sodium acetate and 40 mM NaCl in water, pH4.5) or intraperitoneally (5% EtOH and 5% Solutol HS15 in D5W(ESD-2)) to 6-8 week old male CD1 mice (3 mice per treatment group for a total of 12 mice) at the time points indicated below in Table 7. The mice had free access to food and water.
Dorsal metatarsal vein samples (30 μL), except that the final sample was acquired via a heart puncture, were taken from the mice at the same the administration time points as shown in Table 7.

[2] = IV 1.0 mg/kg, CD1 mice plasma, 24 h
[3] = ip, 10 mg/kg, IP 10 mg/kg, CD1 mice plasma, read-out: Conc. (ng/mL) Mouse 1
[4] = ip, 10 mg/kg, IP 10 mg/kg, CD1 mice plasma, read-out: Conc. (ng/mL) Mouse 2
[5] = ip, 10 mg/kg, IP 10 mg/kg, CD1 mice plasma, read-out: Conc. (ng/mL) Mouse 3
[6] = ip, 10 mg/kg, IP 10 mg/kg, CD1 mice plasma, read-out: Mean
[7] = iv, 1 mg/kg, IV 1.0 mg/kg, CD1 mice plasma, read-out: Conc. (ng/mL) Mouse 1
[8] = iv, 1 mg/kg, IV 1.0 mg/kg, CD1 mice plasma, read-out: Conc. (ng/mL) Mouse 2
[9] = iv, 1 mg/kg, IV 1.0 mg/kg, CD1 mice plasma, read-out: Conc. (ng/mL) Mouse 3
[10] = iv, 1 mg/kg, IV 1.0 mg/kg, CD1 mice plasma, read-out: Mean

SMILES: Cc1ncsc1-c1ccc(CNC(=O)[C@@H]2C[C@@H](O)CN2C(=O)[C@@H](NC(=O)CCOCCCOc2ccc(Nc3ncc(C(F)(F)F)c(NCc4cccc(N(C)S(C)(=O)=O)c4)n3)cc2)C(C)(C)C)cc1 [Compound 103, (2S,4R)-1-((S)-3,3-dimethyl-2-(3-(3-(4-((4-((3-(N-methylmethylsulfonamido)benzyl)amino)-5-(trifluoromethyl)pyrimidin-2-yl)amino)phenoxy)propoxy)propanamido)butanoyl)-4-hydroxy-N-(4-(4-methylthiazol-5-yl)benzyl)pyrrolidine-2-carboxamide]
- fraction unbound (PPB): 0.0022
- Conc. (ng/mL) Mouse 2 ([1]; IP 10 mg/kg, CD1 mice plasma, 24 h): BLOQ
- Conc. (ng/mL) Mouse 1 [1, 2]: BLOQ
- Conc. (ng/mL) Mouse 2 [1, 2]: BLOQ
- Conc. (ng/mL) Mouse 3 [1, 2]: BLOQ
- concentration at 0.25 h [1, 3]: 877 ng/mL
- concentration at 0.25 h [1, 4]: 494 ng/mL
- concentration at 0.25 h [1, 5]: 562 ng/mL
- concentration at 0.25 h [1, 6]: 645 ng/mL
- concentration at 0.5 h [1, 3]: 842 ng/mL
- concentration at 0.5 h [1, 4]: 639 ng/mL
- concentration at 0.5 h [1, 5]: 608 ng/mL
- concentration at 0.5 h [1, 6]: 696 ng/mL
- concentration at 1 h [1, 3]: 2010 ng/mL
- concentration at 1 h [1, 4]: 2460 ng/mL
- concentration at 1 h [1, 5]: 1230 ng/mL
- concentration at 1 h [1, 6]: 1900 ng/mL
- concentration at 2 h [1, 3]: 2130 ng/mL
- concentration at 2 h [1, 4]: 3300 ng/mL
- concentration at 2 h [1, 5]: 826 ng/mL
- concentration at 2 h [1, 6]: 2090 ng/mL
- concentration at 4 h [1, 3]: 1260 ng/mL
- concentration at 4 h [1, 4]: 1210 ng/mL
- concentration at 4 h [1, 5]: 768 ng/mL
- concentration at 4 h [1, 6]: 1080 ng/mL
- concentration at 8 h [1, 3]: 321 ng/mL
- concentration at 8 h [1, 4]: 68.5 ng/mL
- concentration at 8 h [1, 5]: 306 ng/mL
- concentration at 8 h [1, 6]: 232 ng/mL
- concentration at 24 h ([1]; ip, 10 mg/kg, IP 10 mg/kg, CD1 mice plasma, 24 h, read-out: Conc. (ng/mL) Mouse 1): 0.824 ng/mL
- concentration at 24 h ([1]; ip, 10 mg/kg, IP 10 mg/kg, CD1 mice plasma, 24 h, read-out: Conc. (ng/mL) Mouse 3): 4.5 ng/mL
- concentration at 24 h ([1]; ip, 10 mg/kg, IP 10 mg/kg, CD1 mice plasma, 24 h, read-out: Mean): 2.66 ng/mL
- AUC(0-t) ([1]; ip, 10 mg/kg, read-out: AUClast (h * ng/mL) IP): 10400 ng·h/mL
- half-life ([1]; ip, 10 mg/kg, read-out: T ½ (h) IP (converted)): 1.87 h
- concentration at 0.033 h [1, 7]: 4370 ng/mL
- concentration at 0.033 h [1, 8]: 3940 ng/mL
- concentration at 0.033 h [1, 9]: 4020 ng/mL
- concentration at 0.033 h [1, 10]: 4110 ng/mL
- concentration at 0.083 h [1, 7]: 1660 ng/mL
- concentration at 0.083 h [1, 8]: 1730 ng/mL
- concentration at 0.083 h [1, 9]: 1820 ng/mL
- concentration at 0.083 h [1, 10]: 1740 ng/mL
- concentration at 0.25 h [1, 7]: 376 ng/mL
- concentration at 0.25 h [1, 8]: 382 ng/mL
- concentration at 0.25 h [1, 9]: 395 ng/mL
- concentration at 0.25 h [1, 10]: 384 ng/mL
- concentration at 0.5 h [1, 7]: 140 ng/mL
- concentration at 0.5 h [1, 8]: 132 ng/mL
- concentration at 0.5 h [1, 9]: 135 ng/mL
- concentration at 0.5 h [1, 10]: 136 ng/mL
- concentration at 1 h [1, 7]: 52.1 ng/mL
- concentration at 1 h [1, 8]: 58.8 ng/mL
- concentration at 1 h [1, 9]: 57.5 ng/mL
- concentration at 1 h [1, 10]: 56.2 ng/mL
- concentration at 2 h [1, 7]: 36.1 ng/mL
- concentration at 2 h [1, 8]: 27.7 ng/mL
- concentration at 2 h [1, 9]: 32.1 ng/mL
- concentration at 2 h [1, 10]: 32 ng/mL
- concentration at 4 h [1, 7]: 10.8 ng/mL
- concentration at 4 h [1, 8]: 12.9 ng/mL
- concentration at 4 h [1, 9]: 13 ng/mL
- concentration at 4 h [1, 10]: 12.3 ng/mL
- concentration at 8 h [1, 7]: 2.33 ng/mL
- concentration at 8 h [1, 8]: 8.35 ng/mL
- concentration at 8 h [1, 9]: 4.11 ng/mL
- concentration at 8 h [1, 10]: 4.93 ng/mL
- AUC(0-t) ([1]; iv, 1 mg/kg, read-out: AUClast (h * ng/mL) IV): 747 ng·h/mL
- half-life ([1]; iv, 1 mg/kg, read-out: T ½ (h) IV (converted)): 2.44 h

— patent publication US20200038513A1, “MODULATORS OF FAK PROTEOLYSIS AND ASSOCIATED METHODS OF USE” (ARVINAS OPERATIONS, INC., priority 2018, published 2020)
